Marks after values point to notes of the source that are not given here. Residues, ends and D or L forms follow the SMILES beside them.
Tested on: acute ischemic stroke
Experiment: ESCAPE-NA1 trial: efficacy of intravenous nerinetide in patients with acute ischemic stroke undergoing thrombectomy
Type: in vivo, human
Experimental: ESCAPE-NA1 was a multicenter, randomized, double-blinded, placebo-controlled, parallel group, single-dose study to determine the efficacy and safety of intravenous nerinetide in patients with acute ischemic stroke who were selected to undergo thrombectomy. Patients were randomized in a 1:1 ratio to receive a single, 2.6 mg/kg (up to a maximum dose of 270 mg) intravenous dose of nerinetide or saline placebo delivered over 10+1 minutes. Nerinetide and placebo were prepared as colorless solutions in numbered, refrigerated vials.
Randomization in a 1:1 ratio to nerinetide or placebo occurred using a real-time, dynamic, Internet-based, stratified randomized minimization procedure. Stratification occurred on the use of intravenous alteplase (yes/no) and declared initial thrombectomy device (stent-retriever or aspiration device). The choice to stratify was based upon the possibility of drug-drug or drug-device interactions. Randomized minimization occurring within strata aimed to achieve distribution balance with regard to age, sex, baseline National Institutes of Health Stroke Scale (NIHSS) score (range, 0 to 42, with higher scores indicating greater stroke severity), site of arterial occlusion, baseline Alberta Stroke Program Early Computed Tomography Score (ASPECTS; range, 0 to 10, with 1 point subtracted for any evidence of early ischemic change in each defined region on the CT scan) and clinical site.
Eligible patients were adults aged 18 or greater with a disabling ischemic stroke at the time of randomization (baseline NIHSS>5), who had been functioning independently in the community (Barthel Index score>90 [range, 0 to 100, with higher scores indicating a greater ability to complete activities of daily living])^1 before the stroke. Enrollment occurred up to 12 hours after the onset of stroke symptoms (last-seen-well time). Non-contrast CT and multiphase CTA were performed at the thrombectomy center to identify patients with a confirmed proximal intracranial artery occlusion, defined as the intracranial internal carotid artery or the first segment of the middle cerebral artery or both.
After qualifying imaging, patients were treated with rapid EVT using currently available devices. Some patients received intravenous alteplase according to usual care following national or regional guidelines, before or during EVT, at a primary hospital prior to transfer or at the endovascular center. Interpretation of treatment guidelines was at the discretion of the treating team. Patients treated with alteplase more than 4.5 hours from stroke onset were not excluded from the trial for this reason alone. Patients had to meet inclusion and exclusion criteria at the EVT hospital. Patients received trial drug, as a single dose of 2.6 mg/kg to a maximum dose of 270 mg, based upon estimated or actual weight (if known) using a dedicated intravenous line. The trial drug was administered as soon as possible after randomization.
Time targets were imaging to randomization 30 minutes, imaging to study drug administration ≤60 minutes, and imaging to arterial access/puncture ≤60 minutes. Targets from imaging to reperfusion were 90th percentile ≤90 minutes and a median at ≤75 minutes. In general, the order of events was imaging to determine eligibility for EVT treatment, study randomization, administration of alteplase (in some patients), administration of nerinetide, and performance of EVT.
The primary outcome was good outcome as defined by a score of 0-2 on the modified Rankin scale (mRS) (range, 0 [no symptoms] to 6 [death]) for the assessment of neurologic functional disability^2 assessed in person or, if an in-person visit was not possible, by telephone, at 90 days after randomization by personnel certified in the scoring of the mRS. […]

[1] = Alteplase stratum, nerinetide n = 330
[2] = No Alteplase stratum, nerinetide n = 219
[3] = No Alteplase stratum, nerinetide n = 219, missing imputed as deaths
[4] = all patients (ITT), nerinetide vs placebo, 90 days
[5] = all patients, nerinetide group n = 549, 90 days
[6] = all patients, nerinetide vs placebo

With `CC[C@H](C)[C@H](NC(=O)[C@H](CO)NC(=O)[C@H](CO)NC(=O)[C@H](CC(C)C)NC(=O)[C@H](CCCCN)NC(=O)[C@H](CCCN=C(N)N)NC(=O)[C@H](CCCN=C(N)N)NC(=O)[C@H](CCCN=C(N)N)NC(=O)[C@H](CCC(N)=O)NC(=O)[C@H](CCCN=C(N)N)NC(=O)[C@H](CCCN=C(N)N)NC(=O)[C@H](CCCCN)NC(=O)[C@H](CCCCN)NC(=O)[C@H](CCCN=C(N)N)NC(=O)CNC(=O)[C@@H](N)Cc1ccc(O)cc1)C(=O)N[C@@H](CCC(=O)O)C(=O)N[C@@H](CO)C(=O)N[C@@H](CC(=O)O)C(=O)N[C@H](C(=O)O)C(C)C` [Nerinetide] (H-YGRKKRRQRRRKLSSIESDV-OH) the “BI 95-100, unadjusted RR (CI95)” value (Alteplase stratum) was 0.96 (0.86-1.07), the “Deaths without imputation, RR” value (Alteplase stratum) was 1.24 and the “Infarct volume (cubic root transformation), beta coefficient” value (Alteplase stratum) was 0.20 (−0.56 to 0.95)** ml^1/3. The “Infarct volume (median)” value (Alteplase stratum) was 22.7 mL, the “Mortality, unadjusted RR (CI95)” value (Alteplase stratum) was 1.14 (0.74-1.76) and the “NIHSS 0-2, unadjusted RR (CI95)” value (Alteplase stratum) was 0.92 (0.81-1.04). For the same compound, the “mRS 0-1, unadjusted RR (CI95)” value (Alteplase stratum) was 0.92 (0.77-1.10), the “mRS 0-2, unadjusted RR (CI95)” value (Alteplase stratum) was 0.96 (0.85-1.07) and the “BI 95-100, adjusted risk ratio (95% confidence interval)” value (Alteplase stratum (n = 659)) was 0.97 (0.88-1.08). For the same compound, the “Mortality, adjusted risk ratio (95% confidence interval)” value (Alteplase stratum (n = 659)) was 1.08 (0.70-1.66), the “NIHSS 0-2, adjusted risk ratio (95% confidence interval)” value (Alteplase stratum (n = 659)) was 0.92 (0.82-1.04) and the “mRS 0-1, adjusted risk ratio (95% confidence interval)” value (Alteplase stratum (n = 659)) was 0.91 (0.78-1.08). For the same compound, the “mRS 0-2, adjusted risk ratio (95% confidence interval)” value (Alteplase stratum (n = 659), nerinetide vs placebo, 90 days) was 0.97 (0.87-1.08), the “mRS 0-2, adjusted risk ratio (95% confidence interval)” value (Alteplase stratum (n = 659), nerinetide vs placebo, 90 days, listed as nerinetide) was 0.97 and the “BI 95-100, patients number (proportion)” value [1] was 213 (64.5%). For the same compound, the “Mortality, patients number (proportion)” value [1] was 39 (11.8%), the “NIHSS 0-2, patients number (proportion)” value [1] was 191 (57.9%) and the “mRS 0-1, patients number (proportion)” value [1] was 138 (41.8%). The “mRS 0-2, patients number (proportion)” value [1] was 207 (62.7%), the “mRS 0-2, patients number (proportion)” value (Alteplase stratum, nerinetide n = 330, listed as nerinetide) was 62.7% and the “Infarct volume, absolute volume difference of medians” value (Alteplase stratum, nerinetide vs placebo) was 1.6* ml. The “BI 95-100, unadjusted RR (CI95)” value (No Alteplase stratum) was 1.16 (0.98-1.38), the “Deaths without imputation, RR” value (No Alteplase stratum) was 0.60 and the “Infarct volume (cubic root transformation), beta coefficient” value (No Alteplase stratum) was −0.98 (−1.91 to −0.05)** ml^1/3. The “Infarct volume (median)” value (No Alteplase stratum) was 26.7 mL, the “Mortality, unadjusted RR (CI95)” value (No Alteplase stratum) was 0.63 (0.41-0.97) and the “NIHSS 0-2, unadjusted RR (CI95)” value (No Alteplase stratum) was 1.18 (1.00-1.40). The “mRS 0-1, unadjusted RR (CI95)” value (No Alteplase stratum) was 1.13 (0.88-1.45), the “mRS 0-2, unadjusted RR (CI95)” value (No Alteplase stratum) was 1.19 (1.01-1.41) and the “BI 95-100, adjusted risk ratio (95% confidence interval)” value (No Alteplase stratum (n = 446)) was 1.14 (0.97-1.34). The “Mortality, adjusted risk ratio (95% confidence interval)” value (No Alteplase stratum (n = 446)) was 0.66 (0.44-0.99), the “NIHSS 0-2, adjusted risk ratio (95% confidence interval)” value (No Alteplase stratum (n = 446)) was 1.14 (0.97-1.34) and the “mRS 0-1, adjusted risk ratio (95% confidence interval)” value (No Alteplase stratum (n = 446)) was 1.04 (0.82-1.31). The “mRS 0-2, adjusted risk ratio (95% confidence interval)” value (No Alteplase stratum (n = 446), nerinetide vs placebo, 90 days) was 1.18 (1.01-1.38), the “mRS 0-2, adjusted risk ratio (95% confidence interval)” value (No Alteplase stratum (n = 446), nerinetide vs placebo, 90 days, listed as nerinetide) was 1.18 and the “BI 95-100, number of patients” value [2] was 128. The “BI 95-100, proportion of patients” value [2] was “(58.4%)”, the “NIHSS 0-2, number of patients” value [2] was 129 and the “NIHSS 0-2, proportion of patients” value [2] was “(58.9%)”. For the same compound, the “mRS 0-1, number of patients” value [2] was 84, the “mRS 0-1, proportion of patients” value [2] was “(38.4%)” and the “mRS 0-2, number of patients” value [2] was 130. The “mRS 0-2, proportion of patients” value [2] was “(59.3%)”, the “Mortality, number of patients” value [3] was 28 and the “Mortality, proportion of patients” value [3] was “(12.8%)”. The “mRS 0-2, proportion of patients” value (No Alteplase stratum, nerinetide n = 219, listed as nerinetide) was 59.3%, the “Infarct volume, absolute volume difference of medians” value (No Alteplase stratum, nerinetide vs placebo) was −12.5* ml and the “mRS 0-2, adjusted risk ratio (95% confidence interval)” value (all patients (ITT), nerinetide 2.6 mg/kg iv vs placebo, 90 days) was 1.04 (0.96-1.14). The “mRS 0-2, adjusted risk ratio (95% confidence interval)” value (all patients (ITT), nerinetide 2.6 mg/kg iv vs placebo, 90 days, listed as nerinetide) was 1.04, the “BI 95-100, adjusted risk ratio (95% confidence interval)” value [4] was 1.03 (0.94-1.12) and the “Mortality, adjusted risk ratio (95% confidence interval)” value [4] was 0.84 (0.63-1.13). For the same compound, the “NIHSS 0-2, adjusted risk ratio (95% confidence interval)” value [4] was 1.01 (0.92-1.11), the “mRS 0-1, adjusted risk ratio (95% confidence interval)” value [4] was 0.98 (0.85-1.12) and the “Infarct volume (median)” value (all patients, 24-hour imaging) was 23.7 mL. The “Infarct volume (median)” value (all patients, 24-hour imaging, listed as nerinetide) was 26.0 (iqr 6.6-101.5) ml, the “BI 95-100, patients number (proportion)” value [5] was 341 (62.1%) and the “NIHSS 0-2, patients number (proportion)” value [5] was 320 (58.3%). The “mRS 0-1, patients number (proportion)” value [5] was 222 (40.4%), the “mRS 0-2, patients number (proportion)” value [5] was 337 (61.4%) and the “Mortality, patients number (proportion)” value (all patients, nerinetide group n = 549, 90 days, missing outcomes imputed as deaths) was 67 (12.2%). For the same compound, the “mRS 0-2, patients number (proportion)” value (all patients, nerinetide group n = 549, 90 days, listed as nerinetide) was 61.4%, the “Infarct volume (cubic root transformation), adjusted beta coefficient” value (all patients, nerinetide vs control, 24-hour imaging) was −0.29 (−0.87 to 0.30)** ml^1/3 and the “BI 95-100, unadjusted RR (CI95)” value [6] was 1.03 (0.94-1.13). The “Deaths without imputation, RR” value [6] was 0.87, the “Infarct volume, absolute volume difference of medians” value [6] was −2.3* ml and the “NIHSS 0-2, unadjusted RR (CI95)” value [6] was 1.01 (0.92-1.12). For the same compound, the “mRS 0-1, unadjusted RR (CI95)” value [6] was 0.99 (0.86-1.15), the “mRS 0-2, unadjusted RR (CI95)” value [6] was 1.04 (0.94-1.14) and the “Mortality, unadjusted RR (CI95)” value (all patients, nerinetide vs placebo, missing imputed as deaths) was 0.85 (0.63-1.15). For the same compound, the “Infarct volume, mean” value (alteplase group) was 73.3 mL, the “Infarct volume, mean” value (no alteplase group) was 67.8 mL and the Number-needed-to-treat (no-alteplase stratum) was 10-11 patients. The absolute benefit (no-alteplase stratum) was 9.4%, the “absolute risk reduction in mortality at 90 days” value (stratum that did not receive alteplase) was 7.5% and the “hazard of death, adj HR” value (stratum that did not receive alteplase, Cox model) was 0.56.
